Entries after “also recorded” stand apart in the source; their conditions may differ.
Tests used:
[1] = Dynamic vapor sorption (DVS) analysis; conditions: for sorption/desorption behavior between cycles: DVS isotherm plots, two sorption/desorption cycles; for hygroscopicity (moisture sorption) / physical stability of the solid form as humidity is changed: DVS; for hygroscopicity (moisture sorption): relative humidity increased from 0% to 90%; for physical stability of the solid form as humidity is changed: up to 90% RH
[2] = Hydration-state stability of Form CS3 under different humidity (DSC/TGA, Karl Fischer titration); assay type: physicochemical
Excerpt: Form CS3 has been further characterized using DSC/TGA and Karl Fischer titration. […] Dehydration, which is reversible, only occurs when the sample is exposed to a low humidity environment (e.g., less than about 10% RH). […] The DSC/TGA traces of crystalline complex Form CS3 of canagliflozin are in accordance with FIG. 17. The aforementioned physical stability characteristic of this embodiment makes the crystalline complex Form CS3 of canagliflozin a preferred solid form of canagliflozin of this invention.
(FIG. 20) is essentially the same as the XRPD pattern acquired at 25° C. (FIG. 15). Thus, from the XRPD patterns acquired at 25° C. and 100° C., it can be reasonably concluded that although Form CS3 is a monohydrate under ambient conditions (such as in an analytical chemistry laboratory), it can also exist as an anhydrate at low humidity, such as less than about 10% RH, and at temperatures higher than ambient temperature.

[3] = laboratory environmental conditions

Row | hygroscopicity (moisture sorption) [1] | physical stability (hydration state) ([2]; highly humid conditions) | hygroscopicity [2, 3] | physical stability (hydration state) [2, 3] | relative humidity at which (reversible) dehydration occurs ([2]; low humidity environment) | Compound | sorption/desorption behavior between cycles [1] | physical stability of the solid form as humidity is changed [1]
1 | not hygroscopic |  |  |  |  | Cc1ccc([C@@H]2O[C@H](CO)[C@@H](O)[C@H](O)[C@H]2O)cc1Cc1ccc(-c2ccc(F)cc2)s1.O=C(O)[C@@H]1CCCN1 [Form CS1] | completely consistent between cycles | stable in the presence or absence of moisture
2 |  | remains as a monohydrate | non-hygroscopic | stable as a monohydrate | less than 10 % RH | Cc1ccc([C@@H]2O[C@H](CO)[C@@H](O)[C@H](O)[C@H]2O)cc1Cc1ccc(-c2ccc(F)cc2)s1 [Form CS3] |  | 
3 | significantly hygroscopic |  |  |  |  | Cc1ccc([C@@H]2O[C@H](CO)[C@@H](O)[C@H](O)[C@H]2O)cc1Cc1ccc(-c2ccc(F)cc2)s1 [amorphous form of canagliflozin, (2S,3R,4R,5S,6R)-2-{3-[5-[4-fluoro-phenyl)-thiophen-2-ylmethyl]-4-methyl-phenyl}-6-hydroxymethyl-tetrahydro-pyran-3,4,5-triol] | second sorption/desorption cycle was different from the first cycle; also recorded: inconsistent between the two cycles | conversion or partial conversion from the amorphous state to a crystalline state; also recorded: undergoes physical change (from amorphous to crystalline)
